This is an account of results in ChEMBL document CHEMBL6087442, “Modulating the Potency of BRD4 PROTACs at the Systems Level with Amine-Acid Coupling Reactions” (J Med Chem, 2025).

The target in series [1] is T1, Protein cereblon/Bromodomain-containing protein 4/DNA damage-binding protein 1 (Homo sapiens) (UniProt O60885+Q96SW2+Q16531). Put plainly: Binding affinity to biotinylated CRBN/DDB1/N-terminal GST-tagged BRD4-BD1 (unknown origin) assessed as ternary complex formation (KTF) by HTRF assay. The class given is protein assay. On the technique in general: In TR-FRET formats the signal depends on donor and acceptor labels being close together.

Series [2] has as its target T2, Protein cereblon (Homo sapiens, UniProt Q96SW2). Put plainly: Binding affinity to NanoLuc-fused CRBN (unknown origin) transfected in permeabilized HEK293 cells using NanoGlo as substrate incubated for 2 hrs by NanoBRET assay. The class given is cell-based. A general note: Bioluminescence resonance energy transfer reports proximity on the nanometre scale.
Series [3] concerns the target T3, Protein cereblon/Bromodomain-containing protein 4 (Homo sapiens, UniProt O60885+Q96SW2). As to the kind of experiment: PROTAC activity at CRBN/BRD4 in HEK293 cells assessed as induction of BRD4 degradation incubated for 24 hrs by HTRF assay. The class given is cell-based.
A short description of series [4]: Chromatographic hydrophobicity index, logD of the compound at pH 7.4. The class given is physicochemical. The following applies: buffer.
Series [5] deals with T3, Protein cereblon/Bromodomain-containing protein 4. Put plainly: PROTAC activity at CRBN/BRD4 in HEK293 cells assessed as induction of BRD4 degradation by measuring maximal efficacy incubated for 24 hrs by HTRF assay relative to control. The series is classed as cell-based.
In series [6] the target is Bromodomain-containing protein 4 (Homo sapiens, UniProt O60885). Put plainly: Binding affinity to N-terminal GST-tagged BRD4-BD1 (unknown origin) using biotinylated histon4 peptide as substrate incubated for 30 mins by HTRF assay.
Series [7] concerns the target T1, Protein cereblon/Bromodomain-containing protein 4/DNA damage-binding protein 1 (Homo sapiens). As to the kind of experiment: Binding affinity to biotinylated CRBN/DDB1/N-terminal GST-tagged BRD4-BD1(unknown origin) assessed as ternary complex formation (AUC) by HTRF assay. The class given is protein assay.
Series [8] is filed under the species Homo sapiens. Put plainly: Selectivity ratio of IC50 for NanoLuc-fused CRBN (unknown origin) transfected in live HEK293 cells to IC50 for NanoLuc-fused CRBN (unknown origin) transfected in permeabilized HEK293 cells. The series is classed as cell-based.
Series [9] has as its target T2, Protein cereblon. Put plainly: Binding affinity to NanoLuc-fused CRBN (unknown origin) transfected in live HEK293 cells using NanoGlo as substrate incubated for 2 hrs by NanoBRET assay. The series is classed as cell-based.
Series [10] concerns the target T4, von Hippel-Lindau disease tumor suppressor/Bromodomain-containing protein 4 (Homo sapiens, UniProt O60885+P40337). As to the kind of experiment: PROTAC activity at VHL/BRD4 in HEK293 cells assessed as induction of BRD4 degradation by measuring maximal efficacy incubated for 24 hrs by HTRF assay relative to control. The series is classed as cell-based.
Series [11] deals with T4, von Hippel-Lindau disease tumor suppressor/Bromodomain-containing protein 4. As to the kind of experiment: PROTAC activity at VHL/BRD4 in HEK293 cells assessed as induction of BRD4 degradation incubated for 24 hrs by HTRF assay. The class given is cell-based.

pIC50: −log10 of the molar value.

The term pIC50 denotes the negative decadic logarithm of the IC50, by convention in mol/L. The DC50 is the concentration giving 50% degradation. For orientation: chromatographic logD means a lipophilicity value derived from retention on a column. Low values mean lower lipophilicity, high ones higher lipophilicity. The term Emax denotes the greatest response seen or fitted, relative to the assay's reference.

T4 sequence (P40337 whole entry, looked up, other chains not shown): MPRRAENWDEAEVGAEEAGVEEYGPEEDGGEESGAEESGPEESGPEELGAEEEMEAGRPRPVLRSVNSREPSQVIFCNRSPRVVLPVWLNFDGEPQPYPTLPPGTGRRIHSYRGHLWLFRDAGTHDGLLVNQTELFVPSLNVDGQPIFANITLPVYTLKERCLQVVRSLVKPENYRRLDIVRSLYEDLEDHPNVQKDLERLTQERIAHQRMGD

Take `Cc1sc2c(c1C)C(c1ccc(Cl)cc1)=N[C@@H](CCNCCCCNC(=O)COc1cccc3c1C(=O)N(C1CCC(=O)NC1=O)C3=O)c1nnc(C)n1-2` (stereo not given in full): the K in series [1] is 108 nM. Moreover, the pIC50 in series [2] was 6.99; in [6], 6.34; in series [9] it was 4.95. Moreover, the DC50 in series [3] was more than 11000 nM. Besides, the chromatographic logD in series [4] stood at 1.66. Moreover, the Emax in series [5] is 2%. Moreover, the AUC in [7] was determined as 71.5. Further, the Ratio IC50 in [8] came to 110.

Regarding `Cc1ncsc1-c1ccc(CNC(=O)[C@@H]2C[C@@H](O)CN2C(=O)[C@H](C(C)C)N2Cc3ccccc3C2=O)c(OCCCOCCC(=O)C[C@@H]2N=C(c3ccc(Cl)cc3)c3c(sc(C)c3C)-n3c(C)nnc32)c1`, the Emax in series [10] was found to be 79%. The same molecule yielded a chromatographic logD in [4] of 3.16. In series [11], the DC50 turned out to be 13.4 nM.

`Cc1sc2c(c1C)C(c1ccc(Cl)cc1)=N[C@@H](CC(=O)CCCCNC(=O)COc1cccc3c1C(=O)N(C1CCC(=O)NC1=O)C3=O)c1nnc(C)n1-2` (stereo not given in full): in series [1], the K came out at 6.7 nM. Further, the pIC50 in series [2] is 6.97; in series [6], 7.62; in [9] it was 6.37. In addition, the DC50 in series [3] is 9.2 nM. In series [4], this molecule showed a chromatographic logD of 2.57. In addition, the Emax in series [5] turned out to be 85%. The AUC in series [7] came out at 251. Also, the Ratio IC50 in series [8] amounted to 3.9.

`Cc1ncsc1-c1ccc(CNC(=O)[C@@H]2C[C@@H](O)CN2C(=O)[C@H](C(C)C)N2Cc3ccccc3C2=O)c(OCCCOCCNC(=O)C[C@@H]2N=C(c3ccc(Cl)cc3)c3c(sc(C)c3C)-n3c(C)nnc32)c1`: the Emax in [10] was determined as 87%. In series [4], this molecule showed a chromatographic logD of 2.78. Besides, the DC50 in [11] is 68.3 nM.

On to `Cc1sc2c(c1C)C(c1ccc(Cl)cc1)=N[C@@H](CC(=O)OCCCCNC(=O)COc1cccc3c1C(=O)N(C1CCC(=O)NC1=O)C3=O)c1nnc(C)n1-2` (stereo not given in full), for which the K in series [1] is 5 nM. Moreover, the pIC50 was 7.16 in series [2], 8.64 in [6] and 6.58 in series [9]. In series [3], the DC50 is 5.4 nM. This molecule also yielded a chromatographic logD in series [4] of 2.68. Also, in [5], the Emax is 83%. Also, in series [7], the AUC stood at 158. For the same molecule, the Ratio IC50 in [8] came out at 2.4.

In the case of `Cc1sc2c(c1C)C(c1ccc(Cl)cc1)=N[C@@H](CC(=O)NCCCCNC(=O)COc1cccc3c1C(=O)N(C1CCC(=O)NC1=O)C3=O)c1nnc(C)n1-2` (stereo not given in full), the K in [1] came to 9.4 nM. The chromatographic logD in series [4] worked out at 2.16. Further, the Emax in [5] stood at 80%. Further, the AUC in series [7] was 163.

With `Cc1sc2c(c1C)C(c1ccc(Cl)cc1)=N[C@@H](CCCCCNC(=O)COc1cccc3c1C(=O)N(C1CCC(=O)NC1=O)C3=O)c1nnc(C)n1-2` (stereo not given in full), the K in [1] came out at 29.2 nM. For the same molecule, the results for the pIC50 in series [2], in series [6] and in series [9] were 6.92, 7.17 and 6.30, respectively. In addition, in series [3], the DC50 was 10.8 nM. In [4], this molecule returned a chromatographic logD of 2.81. Besides, the Emax in series [5] was determined as 76%. Besides, the AUC in series [7] was 156. Also, the Ratio IC50 in series [8] stood at 4.2.

With `Cc1ncsc1-c1ccc(CNC(=O)[C@@H]2C[C@@H](O)CN2C(=O)[C@H](C(C)C)N2Cc3ccccc3C2=O)c(OCCCOCCCC[C@@H]2N=C(c3ccc(Cl)cc3)c3c(sc(C)c3C)-n3c(C)nnc32)c1`, the Emax in series [10] turned out to be 58%. For the same molecule, the chromatographic logD in series [4] came out at 3.38. The DC50 in [11] is 228 nM.

With `Cc1ncsc1-c1ccc(CNC(=O)[C@@H]2C[C@@H](O)CN2C(=O)[C@H](C(C)C)N2Cc3ccccc3C2=O)c(OCCCOCCNCC[C@@H]2N=C(c3ccc(Cl)cc3)c3c(sc(C)c3C)-n3c(C)nnc32)c1`, the Emax in [10] worked out at 14%. Also, in series [4], the chromatographic logD came to 2.3. In addition, the DC50 in series [11] was more than 11000 nM.

As to `Cc1ncsc1-c1ccc(CNC(=O)[C@@H]2C[C@@H](O)CN2C(=O)[C@H](C(C)C)N2Cc3ccccc3C2=O)c(OCCCOCCOC(=O)C[C@@H]2N=C(c3ccc(Cl)cc3)c3c(sc(C)c3C)-n3c(C)nnc32)c1`, the Emax in series [10] is 89%. In addition, the chromatographic logD in series [4] is 3.25. The DC50 in series [11] is 15.8 nM.
